According to patent US8710233B2 (Gruenenthal GmbH, priority 2005, dated 2014):
Where two headings read alike, the source gives them in different places. Blank lines part the entries; values can stand above or below the compound they belong to.

Legend:
[1] = system: formaldehyde induced nociceptive behaviour; assay: Formaldehyde test in mice, second (late) phase; type: in vivo, mouse; details: for inhibition in vivo at 1 mg/kg / inhibition in vivo at 0.1 mg/kg / inhibition in vivo at 0.3 mg/kg: read-out: inhibition formaldehyde test (n = 10)
[2] = system: capsaicin induced hypothermie; assay: Hypothermie assay in the mouse (capsaicin induced hypothermie); type: in vivo
Description: V. Hypothermie Assay an der Maus
Male NMRI mice (weight 25-35 gram, supplier IFFA CREDO, Bruxelles, Belgium) are used in the hypothermie assay. The animals are kept under standardized conditions: light/darkness interval (6:00 to 18:00 light; 18:00 to 6:00 Uhr darkness), room temperature 19-22° C., relative humidity 35-70%, 15 times per hour change of compartment air, airflow <0.2 m/sec. The animals were fed on a standardized diet (ssniff diet, ssniff Spezialdiäten GmbH, Soest, Germany) and tap water. Water and diet were detracted during the experiment. All animals were used once in the experiment. The animals were allowed to adapt to the experimental conditions for at least 5 days.
The acute application of capsaicin (VR-1 agonist) leads to a decrease of the core body temperature in rat and mice via stimulation of heat sensors. Only compounds which act as specific VR-1-receptor antagonists can antagonize the capsaicin induced hypothermie. In contrast, morphine induced hypothermie is not antagonized by VR-1 antagonists. Thus, this experiment is suitable for the determination of compounds that act as VR1-antagonists via their effect on the core body temperature.
For the determination of the core body temperature a digital thermometer was used (Thermalert TH-5, physitemp, Clifton N.J., USA). The measuring head was inserted into the rectum.
The individual basis value is determined by measuring the body temperature twice in an interval of about half an hour. […] […] The test compound is given 10 min (i.v.) or 15 min (p.o.), respectively, before application of capsaicin. The body temperature is determined 7.5/15 and 30 min after application of capsaicin (i.v.+i.p.) or 15/30/60/90/120 min after application of capsaicin (p.o.+i.p.), respectively. In addition, another group of mice is only given the test compound or a vehicle control.
The measuring points are given as average values±S.E.M. of the absolute values. The antagonistic effect is given in percent of inhibition of capsaicin induced hypothermie.

[3] = molecular target: T1, vanilloid receptor 1 (VR1/TRPV1) of the rat species (Rattus norvegicus, UniProt O35433); assay: FLIPR Ca2+ influx assay on rat dorsal root ganglia cells (pharmacological method I); type: cell-based
T1 construct: The spinal column is removed from decapitated rats; from tissue; host or cells: primary cells dissociated from rat dorsal root ganglia
Method in brief: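 Primary rat dorsal root ganglion cells loaded with 2 μM Fluo-4, Ca2+ influx read on FLIPR as peak fluorescence. Triplicates, at least 3 independent experiments.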

[4] = molecular target: T2, vanilloid receptor (VR1) (Homo sapiens, UniProt Q8NER1); assay: FLIPR Ca2+ influx assay on CHO K1 cells transfected with the VR1 gene (pharmacological method II); type: cell-based
T2 construct: expressed in transfected cells; host or cells: CHO K1 cells (ECACC), stably transfected

[5] = molecular target: VR1/TRPV1 receptor (Homo sapiens, UniProt Q8NER1); assay: IC50 (human) after pH stimulus; type: cell-based
[6] = 0.3 mg/kg body weight po, mouse, read-out: inhibition hypothermie (n = 5)
[7] = 1 mg/kg body weight po, mouse, read-out: inhibition hypothermie (n = 5)
[8] = 0.1 mg/kg body weight po, mouse
[9] = 0.3 mg/kg body weight po, mouse
[10] = Table 2, displacement of capsaicin (100 nM), Cheng-Prusoff, read-out: Ki (rat)
[11] = Table 2, displacement of capsaicin (100 nM), Cheng-Prusoff, read-out: Ki (human)
[12] = table 4, capsaicin, read-out: Ki (rat) Cap.
[13] = table 4, capsaicin, read-out: Ki (human) Cap.
[14] = Mus musculus, po, read-out: inhibition hypothermie (n = 5)

VR1/TRPV1 receptor, sequence (Q8NER1 whole entry): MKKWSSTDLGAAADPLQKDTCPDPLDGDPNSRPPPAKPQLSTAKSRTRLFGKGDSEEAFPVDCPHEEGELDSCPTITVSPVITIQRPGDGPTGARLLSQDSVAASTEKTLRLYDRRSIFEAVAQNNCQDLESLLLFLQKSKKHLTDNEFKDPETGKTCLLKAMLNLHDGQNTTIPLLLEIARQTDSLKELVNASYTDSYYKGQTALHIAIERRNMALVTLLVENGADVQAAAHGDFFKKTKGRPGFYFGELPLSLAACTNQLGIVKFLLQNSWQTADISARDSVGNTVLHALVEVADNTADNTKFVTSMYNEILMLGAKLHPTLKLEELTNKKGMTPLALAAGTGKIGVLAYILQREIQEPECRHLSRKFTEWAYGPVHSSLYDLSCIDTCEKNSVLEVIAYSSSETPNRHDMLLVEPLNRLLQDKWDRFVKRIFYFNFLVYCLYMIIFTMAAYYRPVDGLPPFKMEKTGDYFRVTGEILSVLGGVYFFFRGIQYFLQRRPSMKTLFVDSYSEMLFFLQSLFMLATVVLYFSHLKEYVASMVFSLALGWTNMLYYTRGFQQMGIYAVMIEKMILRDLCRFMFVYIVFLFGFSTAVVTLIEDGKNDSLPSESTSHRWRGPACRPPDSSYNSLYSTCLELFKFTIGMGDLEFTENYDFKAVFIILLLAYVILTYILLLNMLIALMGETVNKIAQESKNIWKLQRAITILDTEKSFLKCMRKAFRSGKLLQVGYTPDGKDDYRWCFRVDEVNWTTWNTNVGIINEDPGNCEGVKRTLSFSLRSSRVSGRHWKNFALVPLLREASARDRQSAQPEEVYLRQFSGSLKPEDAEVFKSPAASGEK
T2 sequence (Q8NER1 whole entry): as above
T1 sequence (O35433 whole entry): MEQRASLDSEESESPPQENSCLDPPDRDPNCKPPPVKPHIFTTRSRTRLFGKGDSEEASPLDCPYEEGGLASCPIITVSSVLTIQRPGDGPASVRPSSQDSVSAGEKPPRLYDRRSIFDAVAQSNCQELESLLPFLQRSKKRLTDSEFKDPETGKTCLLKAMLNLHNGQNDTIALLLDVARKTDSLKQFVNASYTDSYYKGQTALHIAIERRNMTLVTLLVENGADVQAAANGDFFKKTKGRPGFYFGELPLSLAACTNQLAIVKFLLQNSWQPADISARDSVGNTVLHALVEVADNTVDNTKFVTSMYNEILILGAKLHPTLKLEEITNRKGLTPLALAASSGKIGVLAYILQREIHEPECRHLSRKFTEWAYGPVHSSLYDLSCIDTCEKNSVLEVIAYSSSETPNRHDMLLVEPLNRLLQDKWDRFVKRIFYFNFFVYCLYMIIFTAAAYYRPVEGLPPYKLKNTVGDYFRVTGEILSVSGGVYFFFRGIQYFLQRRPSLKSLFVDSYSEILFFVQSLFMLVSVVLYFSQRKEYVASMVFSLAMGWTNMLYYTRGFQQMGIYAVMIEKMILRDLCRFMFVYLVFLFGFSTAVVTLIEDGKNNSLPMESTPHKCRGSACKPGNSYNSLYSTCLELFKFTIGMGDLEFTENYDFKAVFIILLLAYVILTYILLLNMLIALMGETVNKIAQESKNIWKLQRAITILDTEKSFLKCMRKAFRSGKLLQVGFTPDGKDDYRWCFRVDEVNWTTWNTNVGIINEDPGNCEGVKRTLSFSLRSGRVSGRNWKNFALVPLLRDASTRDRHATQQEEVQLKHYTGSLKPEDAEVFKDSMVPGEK

- Ki [3, 12]: 0.7 nM
- Ki [4, 13]: 0.9 nM
- IC50 ([5]; table 4): 16.2 nM
SMILES: CC1CCN(c2cc(C(F)(F)F)ccc2CNC(=O)C(C)c2ccc(NS(C)(=O)=O)c(F)c2)CC1 (stereo not drawn) [Example 82, 2-(3-Fluor-4-(methylsulfonamido)phenyl)-N-(2-(4-methylpiperidin-1-yl)-4-(trifluoromethyl)benzyl)propanamide]
- inhibition formaldehyde test (n = 10) [1, 9]: 0.3 po 39%
- inhibition hypothermie (n = 5) [2, 9]: 0.3 po 53%

- Ki [3, 12]: 5 nM
- Ki [4, 13]: 0.3 nM
- IC50 ([5]; table 4): 57.1 nM
SMILES: CC(C(=O)NCc1ccc(C(F)(F)F)nc1-c1cccs1)c1ccc(NS(C)(=O)=O)c(F)c1 (stereo not drawn) [Example 88, 2-(3-fluoro-4-methylsulfonamido-phenyl)-N-((6-(trflluoromethyl)-2-(thiophen-2-yl)pyridin-3-yl)methyl)-propionamide]
- inhibition in vivo at 0.3 mg/kg [1, 9]: 4%
- inhibition in vivo at 0.3 mg/kg [2, 6]: 38%

- Ki [3, 12]: 47 nM
- Ki [4, 13]: 20.4 nM
- IC50 ([5]; table 4): 260 nM
SMILES: CC(C(=O)NCc1ccc(C(F)(F)F)nc1NC1CCCCC1)c1ccc(NS(C)(=O)=O)c(F)c1 (stereo not drawn) [Example 90, N-(2-cyclohexylamino-6-trifluoromethyl-pyridin-3-ylmethyl)-2-(3-fluoro-4-methylsulfonamido-phenyl)-propionamide]
- inhibition in vivo at 0.3 mg/kg [1, 9]: 46%
- inhibition in vivo at 0.3 mg/kg [2, 6]: 81%

- Ki [3, 12]: 4.9 nM
- Ki [4, 13]: 2.8 nM
- inhibition at 10 µM ([5]; @ 10 μM, read-out: inhibition in percent, IC50 (human) after pH stimulus): 16%
SMILES: CC(C(=O)NCc1ccc(C(F)(F)F)nc1N1CCCC1)c1ccc(NS(C)(=O)=O)c(Br)c1 (stereo not drawn) [Example 103, 2-(3-bromo-4-methylsulfonamido-phenyl)-N-(2-pyrrolidin-1-yl-6-trifluoromethyl-pyridin-3-ylmethyl)-propionamide]
- inhibition in vivo at 0.3 mg/kg [1, 9]: 36%
- inhibition in vivo at 0.3 mg/kg [2, 6]: 39%

- Ki [3, 12]: 6.6 nM
- Ki [4, 13]: 9.1 nM
- IC50 ([5]; table 4): 293 nM
SMILES: CCCCNc1nc(C(F)(F)F)ccc1CNC(=O)C(C)c1ccc(NS(C)(=O)=O)c(F)c1 (stereo not drawn) [Example 116, N-(2-butylamino-6-trifluoromethyl-pyridin-3-ylmethyl)-2-(3-fluoro-4-methylsulfonamido-phenyl)-propionamide]
- inhibition in vivo at 0.1 mg/kg [1, 8]: 39%
- inhibition in vivo at 0.3 mg/kg [2, 6]: 21%

- Ki [3, 12]: 0.5 nM
- Ki [4, 13]: 0.5 nM
- IC50 ([5]; table 4): 23.5 nM
SMILES: CC(C(=O)NCc1ccc(C(F)(F)F)nc1-c1ccc(C(C)(C)C)cc1)c1ccc(NS(C)(=O)=O)c(F)c1 (stereo not drawn) [Example 117]
- inhibition in vivo at 0.3 mg/kg [1, 9]: 5%
- inhibition in vivo at 0.3 mg/kg [2, 6]: 70%

- Ki [3, 12]: 1.2 nM
- Ki [4, 13]: 0.9 nM
- IC50 ([5]; table 4): 101 nM
SMILES: CC(C(=O)NCc1ccc(C(F)(F)F)nc1SC1CCCCC1)c1ccc(NS(C)(=O)=O)c(F)c1 (stereo not drawn) [Example 126]
- inhibition in vivo at 0.1 mg/kg [1, 8]: 20%
- inhibition in vivo at 0.3 mg/kg [2, 6]: 0%

- Ki [3, 12]: 22.4 nM
- Ki [4, 13]: 63.3 nM
- IC50 ([5]; table 4): 1320 nM
SMILES: CC(C(=O)NCc1ccc(C(F)(F)F)nc1-c1ccccc1F)c1ccc(NS(C)(=O)=O)c(F)c1 (stereo not drawn) [Example 150, 2-(3-fluoro-4-methylsulfonamido-phenyl)-N-[2-(2-fluoro-phenyl)-6-trifluoromethyl-pyridin-3-ylmethyl]-propionamide]
- inhibition in vivo at 0.3 mg/kg [1, 9]: 17%

- Ki [3, 12]: 1.9 nM
SMILES: CC(C(=O)NCc1ccc(C(F)(F)F)nc1OCCc1ccccc1)c1ccc(NS(C)(=O)=O)c(F)c1 (stereo not drawn) [Example 178, 2-(3-fluoro-4-methylsulfonamido-phenyl)-N-(2-phenethyloxy-6-trifluoromethyl-pyridin-3-ylmethyl)-propionamide]
- inhibition in vivo at 0.3 mg/kg [1, 9]: 16%
- inhibition in vivo at 0.3 mg/kg [2, 6]: 42%

More lines, now with the values behind:

SMILES: CC(C(=O)NCc1ccc(C(F)(F)F)nc1OCCC(C)(C)C)c1ccc(NS(C)(=O)=O)c(F)c1 (stereo not drawn) [Compound 125]
- inhibition in vivo at 1 mg/kg ([1]; 1 mg/kg body weight po, mouse): 19%
- inhibition in vivo at 0.3 mg/kg [2, 6]: 37%
- inhibition in vivo at 1 mg/kg [2, 7]: 32%
- inhibition in vivo at 3 mg/kg ([2]; 3 mg/kg body weight po, mouse, read-out: inhibition hypothermie (n = 5)): 65%

SMILES: CC(C(=O)NCc1ccc(C(F)(F)F)nc1N1CCC(N2CCCC2)CC1)c1ccc(NS(C)(=O)=O)c(F)c1 (stereo not drawn) [Compound 165]
- inhibition in vivo at 1 mg/kg ([1]; 1 mg/kg body weight po, mouse): 15%
- inhibition at 10 µM ([3]; @ 10 μM, read-out: inhibition in percent, Ki (rat) Cap.): 4%
- inhibition at 10 µM ([4]; CHO-K1, @ 10 μM, read-out: inhibition in percent, Ki (human) Cap.): 0.5%

SMILES: CC(C(=O)NCc1ccc(C(F)(F)F)cc1N1CCCCCCC1)c1ccc(NS(C)(=O)=O)c(F)c1 (stereo not drawn) [Compound 217]
- inhibition in vivo at 1 mg/kg ([1]; 1 mg/kg body weight po, mouse): 37%
- inhibition in vivo at 0.3 mg/kg [2, 6]: 97%

SMILES: CC(C(=O)NCc1ccc(C(C)(C)C)nc1OC1CCCC1)c1ccc(NS(C)(=O)=O)c(F)c1 (stereo not drawn) [Compound 234]
- inhibition in vivo at 0.1 mg/kg [1, 8]: 28%
- inhibition in vivo at 0.3 mg/kg [1, 9]: 41%
- inhibition in vivo at 1 mg/kg ([1]; 1 mg/kg body weight po, mouse): 44%
- inhibition in vivo at 0.3 mg/kg [2, 6]: 31%

SMILES: CC(C(=O)NCc1ccc(C(F)(F)F)cc1N1CCCC1)c1ccc(NS(C)(=O)=O)c(F)c1 (stereo not drawn) [Example 34, 2-(3-fluoro-4-(methylsulfonamido)phenyl)-N-(2-(pyrrolidin-1-yl)-4-(trifluoromethyl)benzyl)propanamide]
- inhibition in vivo at 0.1 mg/kg [1, 8]: 6%
- Ki [3, 10]: 2.5 nM
- Ki [4, 11]: 2.3 nM
- IC50 ([5]; Table 2): 121 nM

SMILES: CC(C(=O)NCc1ccc(C(F)(F)Cl)nc1N1CCCCC1)c1ccc(NS(C)(=O)=O)c(F)c1 (stereo not drawn) [Example 71, N-((6-(chlorodiflouromethyl)-2-(piperidin-1-yl)pyridin-3-yl)methyl)-2-(3-fluoro-(4-methylsulfonamido)phenyl)propanamide]
- inhibition formaldehyde test (n = 10) [1, 9]: 0.3 po 0%
- Ki [3, 10]: 0.8 nM
- Ki [4, 11]: 1.3 nM
- IC50 ([5]; Table 2): 22.4 nM

SMILES: CC(C(=O)NCc1ccc(C(F)(F)F)nc1OC1CCCCC1)c1ccc(NS(C)(=O)=O)c(F)c1 (stereo not drawn) [Example 76]
- inhibition in vivo at 0.3 mg/kg [1, 9]: 12%
- Ki ([3]; Ki (rat), Table 2, displacement of capsaicin (100 nM), Cheng-Prusoff): 1.5 nM
- Ki [4, 11]: 1.3 nM
- IC50 ([5]; Table 2): 43.4 nM

SMILES: CC1CCN(c2nc(C(F)(F)F)ccc2CNC(=O)C(C)c2ccc(NS(C)(=O)=O)c(F)c2)CC1 (stereo not drawn) [Example 80, 2-(3-fluoro-4-methylsulfonamido-phenyl)-N-(2-4-methylpiperidin-1-yl-6-trifluoromethyl-pyridin-3-ylmethyl)-propionamide]
- inhibition in vivo at 0.3 mg/kg [1, 9]: 58%
- Ki [3, 12]: 0.6 nM
- Ki [4, 13]: 0.3 nM
- inhibition in vivo at 0.3 mg/kg [2, 14]: 66%
- IC50 ([5]; table 4): 5.4 nM

SMILES: CCCCOc1cc(C(C)(C)C)ccc1CNC(=O)C(C)c1ccc(NS(C)(=O)=O)c(F)c1 (stereo not drawn) [Example 108, N-(2-butoxy-4-tert-butyl-benzyl)-2-(3-fluoro-4-methylsulfonamido-phenyl)-propionamide]
- inhibition in vivo at 0.3 mg/kg [1, 9]: 15%
- Ki [3, 12]: 0.6 nM
- Ki [4, 13]: 1.4 nM
- inhibition in vivo at 0.3 mg/kg [2, 6]: 38%
- IC50 ([5]; table 4): 114 nM

SMILES: CCCCOc1nc(C(F)(F)Cl)ccc1CNC(=O)C(C)c1ccc(NS(C)(=O)=O)c(F)c1 (stereo not drawn) [Example 140, N-[2-butoxy-6-(chlor-difluor-methyl)-pyridin-3-ylmethyl]-2-(3-fluoro-4-methylsulfonamido-phenyl)-propionamide]
- inhibition formaldehyde test (n = 10) [1, 8]: 0.1 po 56%
- Ki [3, 12]: 0.4 nM
- Ki [4, 13]: 0.7 nM
- IC50 ([5]; table 4): 9.2 nM

SMILES: CC(C)CCOc1nc(C(C)(C)C)ccc1CNC(=O)C(C)c1ccc(NS(C)(=O)=O)c(F)c1 (stereo not drawn) [Example 329, N-[6-tert-butyl-2-(3-methyl-butoxy)-pyridin-3-ylmethyl]-2-(3-fluoro-4-methylsulfonamido-phenyl)-propionamide]
- inhibition in vivo at 1 mg/kg ([1]; 1 mg/kg body weight po, mouse): 54%
- Ki [4, 13]: 0.8 nM
- inhibition in vivo at 1 mg/kg [2, 7]: 7%
- IC50 ([5]; table 4): 179 nM

SMILES: CC(C(=O)NCc1ccc(C(F)(F)F)nc1N1CCC(c2ccccc2)(N(C)C)CC1)c1ccc(NS(C)(=O)=O)c(F)c1 (stereo not drawn) [Example 330, N-(4-dimethylamino-4-phenyl-6′-trifluoromethyl-3,4,5,6-tetrahydro-2H-[1,2′]bipyridinyl-3′-ylmethyl)-2-(3-fluoro-4-methylsulfonamido-phenyl)-propionamide]
- inhibition in vivo at 1 mg/kg ([1]; Mus musculus, po): 54%
- inhibition in vivo at 1 mg/kg [2, 14]: 7%
